Measured values reported in PubChem BioAssay (NCI).
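Cells were grown in 96-well plates and exposed to each compound for 48 hours at five concentrations; endpoints were interpolated linearly between bracketing concentrations, or set to the highest concentration if not reached. TGI denotes the concentration required for complete inhibition of growth.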

How the values were obtained:
Assay in all cases: growth of human tumour cells (NCI), 48 h
M14 melanoma = tested on: M14 melanoma
MDA-MB-435 = tested on: MDA-MB-435
KM12 colon = tested on: KM12 colon
COLO 205 colon = tested on: COLO 205 colon
HCT-116 colon = tested on: HCT-116 colon
SF-295 CNS = tested on: SF-295 CNS
SNB-19 CNS = tested on: SNB-19 CNS
OVCAR-5 ovarian = tested on: OVCAR-5 ovarian
SK-OV-3 ovarian = tested on: SK-OV-3 ovarian
SF-539 CNS = tested on: SF-539 CNS
SR leukemia = tested on: SR leukemia
HT29 colon = tested on: HT29 colon
786-0 renal = tested on: 786-0 renal
NCI/ADR-RES ovarian = tested on: NCI/ADR-RES ovarian
MALME-3M melanoma = tested on: MALME-3M melanoma
BT-549 breast = tested on: BT-549 breast
SF-268 CNS = tested on: SF-268 CNS
CCRF-CEM leukemia = tested on: CCRF-CEM leukemia
SW-620 colon = tested on: SW-620 colon
SK-MEL-2 melanoma = tested on: SK-MEL-2 melanoma
LOX IMVI melanoma = tested on: LOX IMVI melanoma
HCT-15 colon = tested on: HCT-15 colon
PC-3 prostate = tested on: PC-3 prostate
MOLT-4 leukemia = tested on: MOLT-4 leukemia
SN12C renal = tested on: SN12C renal
UACC-62 melanoma = tested on: UACC-62 melanoma
MDA-MB-231 breast = tested on: MDA-MB-231 breast
RPMI-8226 leukemia = tested on: RPMI-8226 leukemia
UACC-257 melanoma = tested on: UACC-257 melanoma
EKVX NSCLC = tested on: EKVX NSCLC
OVCAR-8 ovarian = tested on: OVCAR-8 ovarian
NCI-H226 lung = tested on: NCI-H226 lung
MCF7 breast = tested on: MCF7 breast
SK-MEL-5 melanoma = tested on: SK-MEL-5 melanoma
TK-10 renal = tested on: TK-10 renal
IGROV1 ovarian = tested on: IGROV1 ovarian
NCI-H460 lung = tested on: NCI-H460 lung
HOP-62 NSCLC = tested on: HOP-62 NSCLC
MDA-N = tested on: MDA-N
CAKI-1 renal = tested on: CAKI-1 renal
A498 renal = tested on: A498 renal
HL-60(TB) leukemia = tested on: HL-60(TB) leukemia
K-562 leukemia = tested on: K-562 leukemia
U251 CNS = tested on: U251 CNS
SK-MEL-28 melanoma = tested on: SK-MEL-28 melanoma
ACHN renal = tested on: ACHN renal
DU-145 prostate = tested on: DU-145 prostate
OVCAR-3 ovarian = tested on: OVCAR-3 ovarian
RXF 393 renal = tested on: RXF 393 renal
NCI-H23 lung = tested on: NCI-H23 lung
HS 578T breast = tested on: HS 578T breast
OVCAR-4 ovarian = tested on: OVCAR-4 ovarian
UO-31 renal = tested on: UO-31 renal
A549 NSCLC = tested on: A549 NSCLC
HCC-2998 colon = tested on: HCC-2998 colon
HOP-92 NSCLC = tested on: HOP-92 NSCLC
NCI-H522 lung = tested on: NCI-H522 lung
SNB-75 CNS = tested on: SNB-75 CNS

## O=c1[nH]c2ccc(CC(=S)N3CCOCC3)cc2s1
M14 melanoma
  TGI: > 100 µM
MDA-MB-435
  TGI: > 100 µM
KM12 colon
  TGI: > 100 µM
COLO 205 colon
  TGI: > 100 µM
HCT-116 colon
  TGI: > 100 µM
SF-295 CNS
  TGI: > 100 µM
SNB-19 CNS
  TGI: > 100 µM
OVCAR-5 ovarian
  TGI: > 100 µM
SK-OV-3 ovarian
  TGI: > 100 µM
SF-539 CNS
  TGI: > 100 µM
SR leukemia
  TGI: > 100 µM
HT29 colon
  TGI: > 100 µM
786-0 renal
  TGI: > 100 µM
NCI/ADR-RES ovarian
  TGI: > 100 µM
MALME-3M melanoma
  TGI: > 100 µM
BT-549 breast
  TGI: > 100 µM
SF-268 CNS
  TGI: > 100 µM
CCRF-CEM leukemia
  TGI: > 100 µM
SW-620 colon
  TGI: > 100 µM
SK-MEL-2 melanoma
  TGI: > 100 µM
LOX IMVI melanoma
  TGI: > 100 µM
HCT-15 colon
  TGI: > 100 µM
PC-3 prostate
  TGI: > 100 µM
MOLT-4 leukemia
  TGI: > 100 µM
SN12C renal
  TGI: > 100 µM
UACC-62 melanoma
  TGI: > 100 µM
MDA-MB-231 breast
  TGI: > 100 µM
RPMI-8226 leukemia
  TGI: > 100 µM
UACC-257 melanoma
  TGI: > 100 µM
EKVX NSCLC
  TGI: > 100 µM
OVCAR-8 ovarian
  TGI: > 100 µM
NCI-H226 lung
  TGI: > 100 µM
MCF7 breast
  TGI: > 100 µM
SK-MEL-5 melanoma
  TGI: > 100 µM
TK-10 renal
  TGI: > 100 µM
IGROV1 ovarian
  TGI: > 100 µM
NCI-H460 lung
  TGI: > 100 µM
HOP-62 NSCLC
  TGI: > 100 µM
MDA-N
  TGI: > 100 µM
CAKI-1 renal
  TGI: > 100 µM
A498 renal
  TGI: > 100 µM
HL-60(TB) leukemia
  TGI: > 100 µM
K-562 leukemia
  TGI: > 100 µM
U251 CNS
  TGI: > 100 µM
SK-MEL-28 melanoma
  TGI: > 100 µM
ACHN renal
  TGI: > 100 µM
DU-145 prostate
  TGI: > 100 µM
OVCAR-3 ovarian
  TGI: > 100 µM
RXF 393 renal
  TGI: > 100 µM
NCI-H23 lung
  TGI: > 100 µM
HS 578T breast
  TGI: > 100 µM

## CCOc1ccccc1/C=C1\NC(=O)N(/C=C2\C(=O)Oc3ccccc3C2=O)C1=O
M14 melanoma
  TGI: > 100 µM
OVCAR-4 ovarian
  TGI: > 100 µM
MDA-MB-435
  TGI: > 100 µM
KM12 colon
  TGI: > 100 µM
COLO 205 colon
  TGI: > 100 µM
HCT-116 colon
  TGI: > 100 µM
SF-295 CNS
  TGI: > 100 µM
SNB-19 CNS
  TGI: > 100 µM
OVCAR-5 ovarian
  TGI: > 100 µM
SK-OV-3 ovarian
  TGI: > 100 µM
SF-539 CNS
  TGI: > 100 µM
HT29 colon
  TGI: > 100 µM
786-0 renal
  TGI: > 100 µM
NCI/ADR-RES ovarian
  TGI: > 100 µM
UO-31 renal
  TGI: 75 µM
BT-549 breast
  TGI: > 100 µM
SF-268 CNS
  TGI: > 100 µM
CCRF-CEM leukemia
  TGI: 59.1 µM
SW-620 colon
  TGI: > 100 µM
A549 NSCLC
  TGI: > 100 µM
HCC-2998 colon
  TGI: > 100 µM
SK-MEL-2 melanoma
  TGI: > 100 µM
LOX IMVI melanoma
  TGI: > 100 µM
HCT-15 colon
  TGI: > 100 µM
PC-3 prostate
  TGI: > 100 µM
MOLT-4 leukemia
  TGI: 64.3 µM
HOP-92 NSCLC
  TGI: 67.9 µM
SN12C renal
  TGI: > 100 µM
UACC-62 melanoma
  TGI: > 100 µM
MDA-MB-231 breast
  TGI: > 100 µM
UACC-257 melanoma
  TGI: > 100 µM
EKVX NSCLC
  TGI: > 100 µM
OVCAR-8 ovarian
  TGI: > 100 µM
NCI-H226 lung
  TGI: > 100 µM
MCF7 breast
  TGI: > 100 µM
SK-MEL-5 melanoma
  TGI: 57.9 µM
TK-10 renal
  TGI: 74.7 µM
IGROV1 ovarian
  TGI: > 100 µM
NCI-H460 lung
  TGI: > 100 µM
HOP-62 NSCLC
  TGI: > 100 µM
MDA-N
  TGI: > 100 µM
CAKI-1 renal
  TGI: > 100 µM
HL-60(TB) leukemia
  TGI: 74.4 µM
NCI-H522 lung
  TGI: > 100 µM
U251 CNS
  TGI: > 100 µM
SNB-75 CNS
  TGI: > 100 µM
SK-MEL-28 melanoma
  TGI: > 100 µM
ACHN renal
  TGI: > 100 µM
DU-145 prostate
  TGI: > 100 µM
OVCAR-3 ovarian
  TGI: > 100 µM
RXF 393 renal
  TGI: > 100 µM
NCI-H23 lung
  TGI: 95.5 µM
HS 578T breast
  TGI: > 100 µM
